This is an account of results in patent US6452028B1, “Vitamin D3 analogs” (Hoffmann-La Roche Inc., priority 1996, dated 2002).

Assay [1] relates to HL-60 cells. The assay is described as follows: HL-60 cell differentiation (NBT reduction). Conditions: concentration leading to 50% of maximal differentiation achieved with 100-1000 nM calcitriol, 3 days, read-out: ED50 (the source's name). The format is cell-based. The procedure: HL-60 Cell Differentiation
The induction of differentiation of HL-60 cells was assayed by measuring their oxidative burst potential via the reduction of nitrobluetetrazolium (NBT).
HL-60 cells (30,000 cells/90 μl of RPMI/supplemented medium) were seeded into flat-bottomed microtiter wells. Immediately after seeding, 10 μl of test compounds diluted in supplemented RPMI medium were added to the wells at the same time to yield final concentrations between 10^−11 and 10^−6 M (starting from stock solutions of 10^−2 M in ethanol stored at −20° C. and protected from light).

The test system of assay [2] is HaCaT cell line. In words: Inhibition of keratinocyte proliferation (3H-thymidine uptake). The format is cell-based, human. Conditions: 3H-thymidine incorporation after 6 days of culture in presence of the test compound. A general note: Incorporation of labelled thymidine or its analogues reports DNA synthesis.
The test system of assay [3] is MCF-7 breast carcinoma cells. In words: Antiproliferative activity in MCF-7 breast carcinoma cells (MTT). To be noted: inhibition of cell growth, day 3 to 7 post drug addition, Reed and Muench formula. The format is cell-based.
Assay [4] relates to T47-D breast carcinoma cells. The assay is described as follows: Antiproliferative activity in T47-D breast carcinoma cells (MTT). It counts as cell-based. To be noted: inhibition of cell growth, day 3 to 7 post drug addition, Reed and Muench formula.

As for “1,25-Dihydroxy-16,23Z-diene-26,27-hexafluoro-20-epi-19-nor-cholecalciferol”, the EC50 in assay [1] came out at 4.5 nM. On to `C=C1C(=CC=C2CCCC3(C)C(C(C)C/C=C\C(O)(C(F)(F)F)C(F)(F)F)=CCC23)CC(O)CC1O` (stereo not drawn) [1,25-Dihydroxy-16,23Z-diene-26,27-hexafluoro-20-epi-cholecalciferol], for which the EC50 in assay [1] was 2.3 nM.

For the molecule `C=C1C(=CC=C2CCCC3(C)C(C(C)CCCC(C)(C)O)=CCC23)CC(O)CC1O` (stereo not drawn) [1,25-Dihydroxy-16-ene-20-epi-cholecalciferol], in assay [1], the EC50 was determined as 2.5 nM. The IC50 (commonly the concentration needed to halve the response being measured) in assay [2] came to 4 nM. The like results for `C=C1C(=CC=C2CCCC3(C)C(C(C)CC#CC(C)(C)O)=CCC23)CC(O)CC1O` (stereo not drawn) [1,25-Dihydroxy-16-ene-23-yne-20-epi-cholecalciferol] were, in that order, 15 nM and 93 nM. In assay [3], `CCC(O)(C#CCC(C)C1=CCC2C(=CC=C3CC(O)CC(O)C3)CCCC12C)CC` (stereo not drawn) [1,25-Dihydroxy-16-ene-23-yne-26,27-bishomo-19-nor-20-epi-cholecalciferol] showed an IC50 of 12 nM. `C=C1/C(=C\C=C2/CCC[C@]3(C)C([C@@H](C)CC#CC(O)(CC)CC)=CC[C@@H]23)C[C@@H](O)C[C@@H]1O` [1,25-Dihydroxy-16-ene-23-yne-26,27-bishomo-20-epi-chole-calciferol] gave an IC50 in assay [3] of 11 nM.

`C=C1/C(=C\C=C2/CCC[C@]3(C)C([C@@H](C)CC#CC(O)(C(F)(F)F)C(F)(F)F)=CC[C@@H]23)C[C@@H](O)C[C@@H]1O` [1,25-Dihydroxy-16-ene-23-yne-26,27-hexafluoro-20-epi-cholecalciferol]: the EC50 in assay [1] amounted to 2 nM. In addition, the results for the IC50 in assay [4], in assay [3] and in assay [2] were 6.7 nM, 0.95 nM and 50 nM, respectively.

Regarding `C=C1/C(=C\C=C2/CCC[C@]3(C)[C@@H]([C@H](C)CCCC(C)(C)O)CC[C@@H]23)C[C@@H](O)C[C@@H]1O` [1,25-Dihydroxy-cholecalciferol, reference compound], the IC50 in assay [2] (Homo sapiens, HaCaT) turned out to be 55 nM. Take `C=C1/C(=C\C=C2/CCC[C@]3(C)C([C@@H](C)C/C=C/C(O)(C(F)(F)F)C(F)(F)F)=CC[C@@H]23)C[C@@H](O)C[C@@H]1F` [1α-Fluoro-25-hydroxy-16,23E-diene-26,27-hexafluoro-20-epi-cholecalciferol]: it took 9 nM to reach half-maximal inhibition in assay [3] (IC50). `C=C1C(=CC=C2CCCC3(C)C(C(C)C/C=C\C(O)(C(F)(F)F)C(F)(F)F)=CCC23)CC(O)CC1F` (stereo not drawn) [1α-Fluoro-25-hydroxy-16,23Z-diene-26,27-hexafluoro-20-epi-cholecalciferol]: the EC50 in assay [1] was 20 nM. As for `C=C1/C(=C\C=C2/CCC[C@]3(C)C([C@@H](C)C/C=C/C(O)(CC)CC)=CC[C@@H]23)C[C@@H](O)C[C@@H]1F` [1α-Fluoro-25-hydroxy-16-23E-diene-26,27-bishomo-20-epi-cholecalciferol], the midpoint of inhibition in assay [3], the IC50, lay at 30 nM. The same measure, in the same setting: for `C=C1C(=CC=C2CCCC3(C)C(C(C)CC#CC(O)(C(F)(F)F)C(F)(F)F)=CCC23)CC(O)CC1F` (stereo not drawn) [1α-Fluoro-25-hydroxy-16-ene-23-yne-26,27-hexafluoro-20-epicholecalciferol] the value was 11 nM.
